Data from ChEMBL document CHEMBL4680355, “Staphylococcus aureus resistance to albocycline can be achieved by mutations that alter cellular NAD/PH pools” (Bioorg Med Chem, 2021).
In brackets after ≈: the same amount, converted by molar mass.

What was measured:
Bacterial 70S ribosome [1] = assay: Binding affinity to Staphylococcus aureus 70S ribosome assessed as dissociation constant by measuring reduction in BODIPY-Erythromycin A binding incubated for 1.5 hr by fluorescence polarization assay; assay type: subcellular
Staphylococcus aureus [2] = assay: Inhibition of Staphylococcus aureus MurA expressed in Escherichia coli BL21(DE3) assessed as Vmax for DP-G1cNAc to EU- DP-G1cNAc conversion at 50 uM preincubated for 15 mins by HPLC method (reference value: 0.235 +/- 0.049 uM/min)
Staphylococcus aureus [3] = assay: Inhibition of Staphylococcus aureus MurA expressed in Escherichia coli BL21(DE3) assessed as Vmax for DP-G1cNAc to EU- DP-G1cNAc conversion at 100 uM preincubated for 15 mins by HPLC method (reference value: 0.235 +/- 0.049 uM/min)
Staphylococcus aureus [4] = assay: Inhibition of Staphylococcus aureus MurA expressed in Escherichia coli BL21(DE3) assessed as Vmax for DP-G1cNAc to EU- DP-G1cNAc conversion at 150 uM preincubated for 15 mins by HPLC method (reference value: 0.235 +/- 0.049 uM/min)
Staphylococcus aureus [5] = assay: Inhibition of Staphylococcus aureus MurA expressed in Escherichia coli BL21(DE3) assessed as Kcat for DP-G1cNAc to EU- DP-G1cNAc conversion at 50 uM preincubated for 15 mins by HPLC method (reference value: 0.471 +/- 0.994 /min)
Staphylococcus aureus [6] = assay: Inhibition of Staphylococcus aureus MurA expressed in Escherichia coli BL21(DE3) assessed as Kcat for DP-G1cNAc to EU- DP-G1cNAc conversion at 100 uM preincubated for 15 mins by HPLC method (reference value: 0.471 +/- 0.994 /min)
Staphylococcus aureus [7] = assay: Inhibition of Staphylococcus aureus MurA expressed in Escherichia coli BL21(DE3) assessed as Kcat for DP-G1cNAc to EU- DP-G1cNAc conversion at 150 uM preincubated for 15 mins by HPLC method (reference value: 0.471 +/- 0.994 /min)
Staphylococcus aureus [8] = assay: Antibacterial activity against Staphylococcus aureus UAMS-1 assessed as growth inhibition incubated at 16 to 24 hrs by CLSI method; assay type: functional; settings: time 16-24 hrs
Staphylococcus aureus [9] = assay: Antibacterial activity against Staphylococcus aureus UAMS-1 AlbR A resistant mutant assessed as growth inhibition incubated at 16 to 24 hrs by CLSI method; assay type: functional; settings: time 16-24 hrs
Staphylococcus aureus [10] = assay: Antibacterial activity against Staphylococcus aureus UAMS-1 AlbR B resistant mutant assessed as growth inhibition incubated at 16 to 24 hrs by CLSI method; assay type: functional; settings: time 16-24 hrs
Staphylococcus aureus [11] = assay: Antibacterial activity against Staphylococcus aureus UAMS-1 AlbR C resistant mutant assessed as growth inhibition incubated at 16 to 24 hrs by CLSI method; assay type: functional; settings: time 16-24 hrs
Staphylococcus aureus [12] = assay: Antibacterial activity against Staphylococcus aureus UAMS-1 AlbR D resistant mutant assessed as growth inhibition incubated at 16 to 24 hrs by CLSI method; assay type: functional; settings: time 16-24 hrs
Staphylococcus aureus [13] = assay: Antibacterial activity against Staphylococcus aureus USA300 Tn mutant assessed as growth inhibition incubated at 16 to 24 hrs by CLSI method; assay type: functional; settings: time 16-24 hrs
Staphylococcus aureus [14] = assay: Antibacterial activity against Staphylococcus aureus NE939 Tn mutant assessed as growth inhibition incubated at 16 to 24 hrs by CLSI method; assay type: functional; settings: time 16-24 hrs
Staphylococcus aureus [15] = assay: Antibacterial activity against Staphylococcus aureus NE1416 Tn mutant assessed as growth inhibition incubated at 16 to 24 hrs by CLSI method; assay type: functional; settings: time 16-24 hrs
Staphylococcus aureus [16] = assay: Synergistic antibacterial activity against Staphylococcus aureus UAMS-1 assessed as fractional inhibitory concentration index in presence of fosfomycin by broth microdilution assay; assay type: functional
Staphylococcus aureus [17] = assay: Synergistic antibacterial activity against Staphylococcus aureus UAMS-1 AlbR A resistant mutant assessed as fractional inhibitory concentration index in presence of fosfomycin by broth microdilution assay; assay type: functional
Staphylococcus aureus [18] = assay: Synergistic antibacterial activity against Staphylococcus aureus UAMS-1 AlbR B resistant mutant assessed as fractional inhibitory concentration index in presence of fosfomycin by broth microdilution assay; assay type: functional
Staphylococcus aureus [19] = assay: Synergistic antibacterial activity against Staphylococcus aureus UAMS-1 AlbR C resistant mutant assessed as fractional inhibitory concentration index in presence of fosfomycin by broth microdilution assay; assay type: functional
Staphylococcus aureus [20] = assay: Synergistic antibacterial activity against Staphylococcus aureus UAMS-1 AlbR D resistant mutant assessed as fractional inhibitory concentration index in presence of fosfomycin by broth microdilution assay; assay type: functional
[21] = Inhibition of Staphylococcus aureus MurA expressed in Escherichia coli BL21(DE3) assessed as using DP-G1cNAc as substrate preincubated for 15 mins by HPLC method
Bacterial 70S ribosome [22] = assay: Binding affinity to Staphylococcus aureus 70S ribosome assessed as reduction in BODIPY-Erythromycin A binding incubated for 1.5 hr by fluorescence polarization assay; assay type: subcellular

Row | Compound | MIC (Staphylococcus aureus [8]) [µg/mL] | MIC (Staphylococcus aureus [9]) [µg/mL] | MIC (Staphylococcus aureus [10]) [µg/mL] | MIC (Staphylococcus aureus [11]) [µg/mL] | MIC (Staphylococcus aureus [12]) [µg/mL] | MIC (Staphylococcus aureus [13]) [µg/mL] | MIC (Staphylococcus aureus [14]) [µg/mL] | MIC (Staphylococcus aureus [15]) [µg/mL] | further results
1 | CO[C@H]1/C=C/[C@@](C)(O)/C=C/C(=O)O[C@H](C)[C@@H](C)CC/C=C/1C | 1 (≈ 3.24 µM) | 512 (≈ 1660 µM) | 512 (≈ 1660 µM) | > 1020 | > 1020 | 1 (≈ 3.24 µM) | 1 (≈ 3.24 µM) | > 256 | Kd (Bacterial 70S ribosome [1]): 2.4 nM; Vmax (Staphylococcus aureus [2]): 0.157 µM/min; Vmax (Staphylococcus aureus [3]): 0.0722 µM/min; Vmax (Staphylococcus aureus [4]): 0.0476 µM/min; kcat (Staphylococcus aureus [5]): 0.00523 s⁻¹; kcat (Staphylococcus aureus [6]): 0.0024 s⁻¹; kcat (Staphylococcus aureus [7]): 0.00159 s⁻¹; fractional inhibitory concentration index (FICI) (Staphylococcus aureus [16]): 1.004; fractional inhibitory concentration index (FICI) (Staphylococcus aureus [17]): 0.5; fractional inhibitory concentration index (FICI) (Staphylococcus aureus [18]): 0.25; fractional inhibitory concentration index (FICI) (Staphylococcus aureus [19]): 0.25; fractional inhibitory concentration index (FICI) (Staphylococcus aureus [20]): 0.5; Ki [21]: 23600 nM
2 | CC[C@H]1OC(=O)[C@@](C)(F)C(=O)[C@H](C)[C@@H](O[C@@H]2O[C@H](C)C[C@H](N(C)C)[C@H]2O)[C@](C)(OC)C[C@@H](C)C(=O)[C@H](C)[C@H]2N(CCCCn3cc(-c4cccc(N)c4)nn3)C(=O)O[C@]12C [SOLITHROMYCIN] |  |  |  |  |  |  |  |  | Ki (Bacterial 70S ribosome [22]): 60.3 nM
3 | C[C@@H]1O[C@@H]1P(=O)(O)O [FOSFOMYCIN] | 16 (≈ 116 µM) | 16 (≈ 116 µM) | 16 (≈ 116 µM) | 16 (≈ 116 µM) | 16 (≈ 116 µM) | 32 (≈ 232 µM) | 4 (≈ 29 µM) | 16 (≈ 116 µM) | 
